Results reported in patent US7112574B2, “C2,8-disubstituted adenosine derivatives and their different uses” (priority 2001, dated 2006).
Read-outs that look alike come from different tables or passages of the source.

Key:
adenosine A1 receptor = molecular target: T1, adenosine A1 receptor (Rattus norvegicus, UniProt P25099); experiment: biochemical; settings: for inhibition at 10 µM: read-out: % displacement at 10^-5 M, A1
T1 sequence (P25099 1-326): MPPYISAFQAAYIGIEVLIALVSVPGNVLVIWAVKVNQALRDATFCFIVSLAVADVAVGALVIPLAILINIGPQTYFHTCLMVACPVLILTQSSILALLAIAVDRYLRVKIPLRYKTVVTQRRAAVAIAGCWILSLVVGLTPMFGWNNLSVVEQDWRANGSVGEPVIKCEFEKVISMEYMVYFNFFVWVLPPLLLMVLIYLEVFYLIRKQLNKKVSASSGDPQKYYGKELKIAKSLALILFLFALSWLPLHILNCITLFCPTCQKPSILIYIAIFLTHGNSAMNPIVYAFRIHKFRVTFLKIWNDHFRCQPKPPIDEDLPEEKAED
Description: (§1) Incubations were carried out for 1 hr at 37° C. and were terminated by rapid filtration over Whatman GF/B filters, using a Brandell cell harvester (Brandell, Gaithersburg, Md.). Tubes were washed three times with 3 ml of buffer. Radioactivity was determined in a Beckman 5500B γ-counter. Nonspecific binding was determined in the presence of 10^−5 M R-PIA.
(§2) All compounds prepared were tested in radioligand binding assays to determine their affinities for the adenosine A1 receptor in rat brain cortex, the A2A receptor in rat striatum and the human A3 receptor as expressed in HEK 293 cells (Table 2, hereinafter). The Ki values were computed from the displacement curves obtained by nonlinear regression of the competition curves with the software package Prism (Graph Pad, San Diego, Calif.)
(§3) For the adenosine A1 receptor, the tritiated antagonist, [^3H]-1,3-dipropyl-8-cyclopentylxanthine ([^3H]DPCPX), and for the adenosine A2A receptor, the tritiated antagonist [^3H]ZM 241385 were used. Since radiolabeled antagonists are not commercially available for the adenosine A3 receptor, [125I]AB-MECA, an A3 receptor agonist, was used. Displacement experiments were performed in the absence of GTP.

adenosine A2A receptor = adenosine A2A receptor (Rattus norvegicus, UniProt P30543); experiment: biochemical; settings: for A3/A2A: ratio of Ki A3 (human) to Ki A2A (rat); for % displacement at 10^-5 M, A2A: [3H]ZM241385, rat striatal membranes, 10 μM, n=2, mean value
Description: as §1, §2, §3

human A3 receptor = molecular target: T2, human A3 receptor (Homo sapiens, UniProt P0DMS8); experiment: Radioligand binding, displacement of [125I]AB-MECA from human A3 receptor expressed in HEK 293 cells; settings: for % displacement at 10^-5 M, A3: 10 μM, n=2, mean value
T2 construct: expressed in transfected cells; host or cells: HEK 293
T2 sequence (P0DMS8 1-318): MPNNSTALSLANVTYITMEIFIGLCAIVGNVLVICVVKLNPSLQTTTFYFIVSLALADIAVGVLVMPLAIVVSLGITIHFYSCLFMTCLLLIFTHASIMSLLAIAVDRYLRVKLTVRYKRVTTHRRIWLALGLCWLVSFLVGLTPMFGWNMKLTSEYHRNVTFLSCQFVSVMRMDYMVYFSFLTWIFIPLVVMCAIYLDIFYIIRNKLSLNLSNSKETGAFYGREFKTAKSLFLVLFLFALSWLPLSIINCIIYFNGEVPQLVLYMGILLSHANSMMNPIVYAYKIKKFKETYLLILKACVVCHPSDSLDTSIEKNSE
Description: as §1, §2, §3

[1] = molecular target: human adenosine A2A receptors (Homo sapiens, UniProt P29274); settings: for agonist behaviour (intrinsic activity) at the adenosine A2A receptor: cAMP production compared to reference agonist CGS 21680, words
Description: CHO cells expressing the human adenosine A2A receptors were grown overnight as a monolayer in 24 wells tissue culture plates (400 μl/well; 2×10^5 cells/well). cAMP generation was performed in Dulbecco's Modified Eagles Medium (DMEM)/N-2-hydroxyethylpiperazin-N′-2-ethansulfonic acid HEPES) buffer (0.60 g HEPES/50 ml DMEM pH 7.4). To each well, washed three times with DMEM/HEPES buffer (250 μl), 100 μl DMEM/HEPES buffer, 100 μl adenosine deaminase (final concentration 5 IU/ml) and 100 μl of a mixture of rolipram and cilostamide (final concentration 50 μM each) were added. After incubation for 40 minutes at 37° C., 100 μL agonist was added. After 15 minutes at 37° C., the reaction was terminated by removing the medium and adding 200 μl 0.1 M HCl. Wells were stored at −20° C. until assay.
The amounts of cAMP were determined after a protocol with cAMP binding protein^12 with the following minor modifications. As a buffer was used 150 mM K2HPO4/10 mM EDTA/0.2% Bovine Serum Albumine (BSA) at pH 7.5. Samples (20 μl+30 μl 0.1 M HCl) were incubated for at least 2.5 hours at 0° C. before filtration over Whatman GF/B filters. […] Filters were counted in Packard Emulsifier Safe scintillation fluid (3.5 ml) after 24 hours of extraction.
All compounds prepared were also tested in a functional assay.

[2] = [125I]AB-MECA, human A3 receptor in HEK 293 cells

Row | Compound | Ki (adenosine A1 receptor) [nM] | Ki (adenosine A2A receptor) [nM] | % displacement at 10^-5 M, A3 (human A3 receptor; [2]) [%] | % cAMP production hA2A [1] | inhibition at 10 µM (adenosine A1 receptor) [%] | A3/A2A (adenosine A2A receptor) | Ki (human A3 receptor) [nM] | agonist behaviour (intrinsic activity) at the adenosine A2A receptor [1] | % displacement at 10^-5 M, A2A (adenosine A2A receptor) [%] | melting point [°C] | selectivity for the adenosine A2A receptor compared to A3 (adenosine A2A receptor; from Ki values) [fold] | Ki (human A3 receptor; [125I]AB-MECA, human A3 receptor in HEK 293 cells, ±SEM, n=3, read-out: Ki A3) [nM]
1 | CCCC/C=C/c1nc(N)c2nc(NCCCC)n([C@@H]3O[C@H](CO)[C@@H](O)[C@H]3O)c2n1 [Compound 20, 2-((E)-1-hexenyl)-8-butylaminoadenosine] | 906 ± 264 | 580 ± 250 | 47.4 | 36% (33–40) | – | – | – | – | – | – | – | –
2 | CCCC/C=C/c1nc(N)c2ncn([C@@H]3O[C@H](CO)[C@@H](O)[C@H]3O)c2n1 [Compound 4, 2-((E)-1-hexenyl)adenosine] | – | 26.2 ± 1.8 | – | 82% (78–86) | 53.1 | 2.78 | 73.5 ± 7.7 | partial agonism | – | – | – | –
3 | Nc1nc(I)nc2c1nc(NCc1ccccc1)n2[C@@H]1O[C@H](CO)[C@@H](O)[C@H]1O [Compound 11, 2-iodo-8-benzylaminoadenosine] | – | – | 39.5 | 125% (92–157) | 35.5 | – | – | full agonists | 44.7 | – | – | –
4 | Nc1nc(NCc2ccccc2)nc2c1nc(NCc1ccccc1)n2[C@@H]1O[C@H](CO)[C@@H](O)[C@H]1O [Compound 23, 2,8-di-benzylaminoadenosine] | – | – | 54.1 | 95% (90–100) | 50.2 | – | – | full agonists | 11.6 | – | – | –
5 | CCCC/C=C/c1nc(N)c2nc(NC)n([C@@H]3O[C@H](CO)[C@@H](O)[C@H]3O)c2n1 [Compound 17, 2-((E)-1-Hexenyl)-8-methylaminoadenosine] | – | 663 ± 106 | – | 54% (49–59) | 17.9 | 20.3 | 13400 ± 2130 | – | – | 161 to 166 | – | –
6 | CCCCC#Cc1nc(N)c2nc(NCCCC)n([C@@H]3O[C@H](CO)[C@@H](O)[C@H]3O)c2n1 [Compound 15, 2-(1-hexynyl)-8-butylaminoadenosine] | 539 ± 380 | 149 ± 29 | 64.3 | 72% (63–82) | – | – | – | – | – | 182 to 184 | – | –
7 | CCCCC#Cc1nc(N)c2nc(NCCC)n([C@@H]3O[C@H](CO)[C@@H](O)[C@H]3O)c2n1 [Compound 14, 2-(1-Hexynyl)-8-propylaminoadenosine] | – | 82 | – | 58% (50–66) | 47.6 | 26.3 | 2160 ± 120 | – | – | 184 to 186 | ~26 | –
8 | CCCNc1nc2c(N)nc(I)nc2n1[C@@H]1O[C@H](CO)[C@@H](O)[C@H]1O [Compound 9, 2-Iodo-8-propylaminoadenosine] | – | – | – | – | 40.2 | – | 8670 ± 2000 | – | 50.7 | 160 to 162 | – | –
9 | CCCCNc1nc2c(N)nc(I)nc2n1[C@@H]1O[C@H](CO)[C@@H](O)[C@H]1O [Compound 10, 2-Iodo-8-butylaminoadenosine] | – | 3110 ± 1650 | 43.1 | 28% (27–30) | 28.2 | – | – | – | – | – | – | –
10 | CCCC/C=C/c1nc(N)c2nc(NCc3ccccc3)n([C@@H]3O[C@H](CO)[C@@H](O)[C@H]3O)c2n1 [Compound 21, 2-((E)-1-hexenyl)-8-benzylaminoadenosine] | 2110 ± 560 | – | 24.3 | 73% (72–75) | – | – | – | – | 26.3 | 153 to 155 | – | –
11 | CCCC/C=C/c1nc(N)c2nc(NCC)n([C@@H]3O[C@H](CO)[C@@H](O)[C@H]3O)c2n1 [Compound 18, 2-((E)-1-hexenyl)-8-ethylaminoadenosine] | – | 1840 ± 300 | – | 65% (63–66) | 30 | 9.53 | 17500 ± 2100 | – | – | 128 to 130 | – | –
12 | CCCCC#Cc1nc(N)c2nc(C#CCCCC)n([C@@H]3O[C@H](CO)[C@@H](O)[C@H]3O)c2n1 [Compound 22, 2,8-di-(1-hexynyl)adenosine] | – | – | – | 99% (98–99) | 50.3 | – | 254 ± 34 | full agonists | 28.7 | – | – | –
13 | CCCCC#Cc1nc(N)c2ncn([C@@H]3O[C@H](CO)[C@@H](O)[C@H]3O)c2n1 [Compound 3, 2-(1-hexynyl)adenosine] | – | – | – | 61% (58–64) | – | – | – | partial agonism | – | – | – | 16.9 ± 4.1
14 | Nc1nc(I)nc2c1nc(Br)n2[C@@H]1O[C@H](CO)[C@@H](O)[C@H]1O [Compound 5, 2-iodo-8-bromoadenosine] | – | – | 6.2 | – | 21.6 | – | – | – | 43.1 | – | – | –
15 | CCCCC#Cc1nc(N)c2nc(NCC)n([C@@H]3O[C@H](CO)[C@@H](O)[C@H]3O)c2n1 [Compound 13, 2-(1-hexynyl)-8-ethylaminoadenosine] | – | 253 ± 29 | – | 134% (124–143) | 30.9 | 34.9 | 8830 ± 1230 | full agonist | – | – | – | –
16 | Nc1nc(I)nc2c1ncn2[C@@H]1O[C@H](CO)[C@@H](O)[C@H]1O [Compound 1, 2-Iodoadenosine] | – | – | – | 126% (118–134) | 36.1 | – | – | full agonist | – | – | – | –
17 | CCCCC#Cc1nc(N)c2nc(NC)n([C@@H]3O[C@H](CO)[C@@H](O)[C@H]3O)c2n1 [Compound 12, 2-(1-Hexynyl)-8-methylaminoadenosine] | – | 115 | – | 85% (85–86) | 31.6 | 49.0 | 5640 ± 780 | – | – | – | – | –
